According to publication PMC8778187, “A New Oxygen Containing Pyclen-Type Ligand as a Manganese(II) Binder for MRI and ^52Mn PET Applications: Equilibrium, Kinetic, Relaxometric, Structural and Radiochemical Studies” (Molecules, 2022):

Experiment: 17O NMR and NMRD measurements (water exchange, rotation, hydration number)
Assay type: physicochemical
Method: The relaxivity of paramagnetic metal complexes is governed by several parameters, including the water exchange rate (kex), the rotational correlation time (τR), and the number of inner sphere water molecules (q). In order to obtain information for these parameters, temperature dependent ^17O NMR measurements (9.4 T) and nuclear magnetic relaxation dispersion (NMRD) experiments were carried out in the frequency range of 0.01–80 MHz, at 3 different temperatures (25, 37, and 50 °C). Since numerous physico-chemical parameters determine the relaxivity, the independent assessment of some of the parameters is essential for the correct characterization. The variable temperature ^17O NMR measurements can deliver information about kex and τR via the transverse (1/T2) and the longitudinal (1/T1) ^17O relaxation rates, respectively, while the ^17O chemical shifts (Δω) depend on q. Therefore, the transverse and longitudinal relaxation rates and chemical shifts for a [Mn(3,9-OPC2A)] complex and a diamagnetic reference sample (HClO4, pH = 3.3) have been determined in the aqueous solution.
The ^17O 1/T2r values and the NMRD data have been analyzed simultaneously by the Swift–Connick equations [31], as well as by the Solomon–Bloembergen–Morgan (SMB) and Freed models (see Supporting Information). In this calculation, the water exchange rate, kex^298; its activation enthalpy and entropy, ΔH^‡ and ΔS^‡; the rotational correlational time, τR; its activation energy, ER; the square of the zero-field splitting energy (ZFS), Δ^2; and the correlation time of its modulation, τv, have been determined and listed in Table 5, together with corresponding values of other complexes for comparison. As a result of the high number of parameters involved in the calculations, some have to be set to reasonable estimates based on literature data. Thus, the scalar coupling constant, A/ħO, is set to 33 × 10^6 rad s^−1, the distance between the metal ion, and the inner and outer sphere water protons are fixed to rMnH = 2.83 Å and aMnH = 3.6 Å, respectively; the diffusion coefficient and its activation energy are fixed to DMnH = 23 × 10^−10 m^2s^−1 and EMnH = 18 kJmol^−1, and the activation energy of the modulation of the zero-field-splitting, Ev to 1.0 kJmol^−1.
The hydration number has been fixed to q = 1, based on the relaxivity value measured at 20 MHz (r1 = 3.09 mM^−1s^−1), and on the value, 0.97 ± 0.2, determined for q using the method proposed by Gale et al..
A Bruker Avance 400 (9.4 T) spectrometer was used to measure the longitudinal (1/T1) and transverse (1/T2) relaxation rates, and the chemical shifts of an aqueous solution of the [Mn(3,9-OPC2A)] complex (pH = 7.4, 1.3 mM) and a diamagnetic reference (HClO4 acidified water, pH = 3.3) in the temperature range of 273–348 K. The temperature calibration was performed using literature protocols relying on ethylene glycol and methanol standards. The 1/T1 and 1/T2 values were determined by the inversion−recovery and the Carr−Purcell−Meiboom−Gill spin echo technique, respectively. To avoid susceptibility corrections of the chemical shifts, a glass sphere fitted into a 10 mm NMR tube was used to contain the samples. ^17O enriched water (10% H2^17O, CortecNet) was added to the solutions to improve sensitivity (circa 1% enrichment). Proton NMRD profiles of the [Mn(3,9-OPC2A)] complex (1.00 mM, pH = 7.4) were recorded in aqueous solution on a Stelar SMARTracer Fast Field Cycling relaxometer (0.01−10 MHz), and a Bruker WP80 NMR electromagnet adapted to variable field measurements (20−80 MHz) and controlled by a SMARTracer PC-NMR console (Stelar s.r.l., Mede, Italy). The temperature was monitored by a VTC91 temperature control unit and maintained by a gas flow. The temperature was determined by previous calibration with a Pt resistance temperature probe. […]

O=C([O-])CN1CCOCCN(CC(=O)[O-])Cc2cccc(n2)C1.[Mn+2] [[Mn(3,9-OPC2A)]]
r1^298_20 MHz (20 MHz, 298 K): 3.09 mM⁻¹ s⁻¹ | ER (activation energy of rotation): 14.8 ± 0.6 kJmol^−1 | ΔH^‡ (activation enthalpy of water exchange): 28.5 ± 1.7 kJmol^−1 | ΔS^‡ (activation entropy of water exchange): −1.9 ± 0.8 JK^−1mol^−1 | τv^298 (correlation time of ZFS modulation): 19.3 ± 3.0 ps | q (method proposed by Gale et al.) (hydration number from 17O NMR line widths): 0.97 ± 0.2 | q (hydration number, fixed during the fitting procedure): 1 | τR^298 (rotational correlation time): 40.0 ± 1.1 ps | Δ^2 (square of the zero-field splitting energy): 17.8 ± 3.6 10^18s^−2 | kex^298 (water exchange rate with bulk solvent): 5.3 ± 0.4 × 10^7 s^−1 | kex^298 (water exchange rate, fit of 17O NMR and NMRD data): 5.3 ± 0.4 10^7s^−1
